Columns and labels:
[1] = Plasma levels after intraperitoneal injection in CONVR mice; format: in vivo, mouse; details: 100 μg i.p. twice per day for 3 days
Method: (§1) An intraperitoneal glucose tolerance test (using 1 g glucose per kg body weight) was then performed after a 4 h fast. Blood glucose levels were measured from tail blood using HemoCue201+analyzer (HemoCue, Angelholm, Sweden). Liver and plasma samples were collected after a 4 h fast. Mice were under isoflurane anesthesia and killed by cervical dislocation. Fresh liver was taken and snap-frozen in liquid nitrogen and stored at −80° C. until protein extraction.
(§2) The samples were then reconstituted with 5% HCl in n-butanol at 70° C. for 1 h, allowing n-butyl ester to be formed. […] Samples (5 μl) were injected onto a C18 BEH column (2.1×100 mm with 1.7 μm particles; Waters, Milford, Mass.) using a gradient consisting of water with 0.1% formic acid (A-phase) and acetonitrile with 0.1% formic acid (B-phase). Mass spectrometric analysis was performed using an Infinity 1290 quaternary UPLC pump (Agilent, Santa Clara, Calif.) coupled to a QTRAP 5500 (ABSciex, Concord, Canada). […] For the internal standards, the transitions 206/81 and 204/93 were used.

[2] = tested on: primary hepatocytes; experiment: Insulin signaling in primary hepatocytes (immunoblot); format: cell-based, mouse
Method: (§3) Snap-frozen liver and harvested cells were lysed in buffer containing 50 mM Tris-HCl (pH 7.4), 150 mM NaCl, 1 mM EDTA, 1 mM Na3VO4, 20 mM NaF, 10 mM glycerophosphate, 1 mM PMSF, 10% glycerol, 1% Triton X-100 and protease inhibitor cocktail. For immunoprecipitation, the cell lysates were obtained in 0.3% CHAPS-containing lysis buffer, sonicated and centrifuged at 20,000 g for 15 min at 4° C., and the supernatant was incubated with 20 μl of anti-FLAG beads (Sigma) at 4° C. for 4 h under gentle agitation.
Primary hepatocytes were isolated from C57BL/6J mice by digesting liver with perfusion of collagenase type IV as described previously. After perfusion, 16×10^5 cells were plated on collagen-coated 60 mm dishes in Dulbecco's modified Eagle's medium (DMEM)/F12 supplemented with fetal bovine serum (FBS), penicillin/streptomycin and 100 nM dexamethasone. After 4 h, the medium was changed to DMEM/F12 containing penicillin/streptomycin.

[3] = target: T1, mTORC2 (Homo sapiens, UniProt P42345); experiment: mTORC2 kinase activity assay; format: biochemical
T1 construct: expressed in transfected cells; host or cells: HEK293
Method: HEK293 cells were transfected with 1 μg of HA Rictor and 0.5 μg of Flag mTOR for mTORC2 activity assay, lysed with 0.3% CHAPS-containing lysis buffer, sonicated and centrifuged at 20,000 g for 15 min at 4° C., and the supernatant was incubated with 2 μg of anti-HA antibody at 4° C. for overnight under gentle agitation. Immunocomplexes were then collected with protein A-Sepharose beads (RepliGen, Needham, Mass.) at 4° C. for 2 h and washed three times with 0.3% CHAPS-containing lysis buffer. […] Kinase reaction was started by adding 100 μM ATP for 15 min at 37° C. and stopped by adding 5× Laemmli buffer.

[4] = tested on: HEK293 cells; experiment: siRNA knock-down in HEK293 cells, ImP-induced signaling; format: cell-based, human; details: HEK293 transfected with control or p38δ/p38γ siRNA
Method: HEK293 cells (ATCC CRL-1573) were grown and maintained in high-glucose (4.5 g/l glucose) DMEM with 10% (v/v) FBS. All HEK293 cell experiments were performed in serum-starved and amino acid-deprived conditions. 24 h after transfection (with plasmids or siRNA as indicated), HEK293 cells cultured in poly-L-lysine-coated 60 mm dishes were rinsed twice with DMEM without FBS and incubated in serum-free DMEM for 18 h. HEK293 cells were then washed once with EBSS and incubated in EBSS for 1 h.
FLAG mTOR and HA Raptor were kindly provided by Dr Sung Ho Ryu (Pohang University of Science and Technology, Pohang, South Korea). Myc-Rag GTPases constructs were gifts from Dr Do-Hyung Kim (University of Minnesota, Minn., USA). AIIStars negative control siRNA, p38δ siRNA1 (Hs_MAPK13_5 targeting […] (SEQ ID NO: 15)), p38δ siRNA2 (Hs_MAPK13_6 targeting […] (SEQ ID NO: 16)), p38γ siRNA1 (Hs_MAPK12_5 targeting […] (SEQ ID NO: 17)), p38γ siRNA2 (Hs_MAPK12_8 targeting […] (SEQ ID NO: 18)), p38α siRNA (Hs_MAPK14_5 targeting […] (SEQ ID NO: 21)), p38β siRNA (Hs_MAPK11_6 targeting […] (SEQ ID NO: 22)), S6K1 siRNA (Hs_RPS6KB1_5 targeting […] (SEQ ID NO: 23)) and Raptor siRNA (Hs_RPTOR_1 targeting […] (SEQ ID NO: 24)) (Qiagen, Valencia, Calif.) were transfected into HEK293 cells using Lipofectamin 2000 according to the manufacturer's instructions.

[5] = tested on: CONVR mice; experiment: Metabolic cages (PhenoMaster) in CONVR mice; format: in vivo, mouse; details: 100 μg i.p. twice a day for 3 days
Method: Mice were singly housed for two days before being transferred to the PhenoMaster cages, and allowed an additional 2 days to acclimatize to the new cage before taking measurements. Parameters were automatically measured every 15 min for 5 days. During the measurements, the mice had free access to water and food. […] Oxygen consumption (VO2) was calculated from measurements of oxygen and carbon dioxide concentration in the reference cage compared to the sample cage. Measurements of oxygen consumption and energy expenditure were adjusted to lean body mass, which was determined by MRI (EchoMRI, Houston, Tex., USA).

[6] = Circulating levels after intraperitoneal injection in GF mice; format: in vivo, mouse; details: 500 μg intraperitoneally twice per day for 3 days
Method: as §1, §2

[7] = tested on: mTORC1; experiment: mTOR modification in mTORC1 (Raptor immunoprecipitation), HEK293; format: cell-based, human
Method: as §3

[8] = tested on: mTORC2; experiment: mTOR modification in mTORC2 (Rictor immunoprecipitation), HEK293; format: cell-based, human
Method: as §3

[9] = tested on: insulin signaling components; experiment: Immunoblot of liver lysates from GF mice; format: in vivo, mouse; details: 3-day treatment
Method: as §1, §3

## O=C(O)CCc1cnc[nH]1 [imidazole propionate]
[1]
  effect on urocanate levels: without affecting
  increase of circulating concentrations of imidazole propionate: around 4 fold
[2]; 100 μM for 8 h
  IRS protein levels: did not affect
[2]; 100 μM for 8 h, insulin 5 nM
  insulin-induced IRS1 Y612 phosphorylation: blunted
[2]; 100 μM for 20 h
  IRS protein levels: reduced
[2]; 8 h
  basal Akt phosphorylation at both S473 and T308: induced
[2]; 8 h, insulin 5 nM
  insulin-induced Akt S473 phosphorylation: reduced
  insulin-induced Akt T308 phosphorylation: not
[2]; 14 h
  IRS1 level: dramatic reduction
  basal Akt phosphorylation at S473 and T308: increase
  insulin-induced Akt S473 phosphorylation: lower
[2]; 14 h, vs vehicle
  insulin-induced Akt T308 phosphorylation: higher
[2]; ImP 100 μM
  S6K1 phosphorylation: increased
[2]; ImP 100 μM for 24 h
  p62 phosphorylation: induced
[3]
  in vitro mTORC2 kinase activity towards Akt: not altered
[4]
  DEPTOR level: not affected
[5]
  energy expenditure in the early dark phase: significantly reduced
  total locomotor activity: not significantly reduced
[6]
  circulating concentrations of imidazole propionate: around 13 nM
  effect on urocanate levels: without affecting
[7]; HEK293, 2 h incubation
  modulation of mTORC1: specifically modulated
[7]; Raptor immunoprecipitation
  mTOR S2448 phosphorylation in mTORC1: strongly induced
  mTOR S2481 phosphorylation in mTORC1: not
[8]; HEK293, 2 h incubation
  modulation of mTORC2: not
[8]; Rictor immunoprecipitation
  mTOR S2448 or S2481 phosphorylation in mTORC2: unaffected
[9]
  Akt phosphorylation, either S473 or T308, in liver: no reduction
  S6K1 phosphorylation in the liver: increased
  mTORC1 S2481 autophosphorylation in the liver: without affecting
[9]; 500 μg twice per day
  hepatic levels of IRS1 and IRS2: reduced
  hepatic levels of the insulin receptor (IR): did not affect
